Measured values published in publication PMC3894558, “Chemical signatures and new drug targets for gametocytocidal drug development” (Scientific Reports, 2014).
“Also recorded” adds a separate entry of the source. Read-outs that look alike come from different tables or passages of the source. Starred links: 1 amine or outer side, 2 acyl side, 3 side chain; linkers in the order of their positions; H or OH if unused. Positions of bridges follow the written chain, without caps; N, C: chain ends. Non-standard residues stand in square brackets, D forms with d. Residues, ends and D or L forms follow the SMILES beside them. Chains are numbered I, II in the order given. Actinocin(9to1) = Cc1c2oc3c(C)ccc(C(=O)[*:1])c3nc-2c(C(=O)[*:2])c(N)c1=O; NMeV = CN[C@H](C(=O)O)C(C)C; Sar = CNCC(=O)O

Tests used:
HepG2 cells [1] = assay: cells; details: Homo sapiens; for Emax: HepG2, read-out: % Max response
HepG2 cells [2] = details: for % Max response: HepG2 cells
[3] = system: P. falciparum 3D7 gametocytes; assay: alamarBlue gametocyte viability assay, strain 3D7; type: cell-based, Plasmodium falciparum
[4] = system: P. falciparum Dd2 gametocytes; assay: alamarBlue gametocyte viability assay, strain Dd2; type: cell-based, Plasmodium falciparum
[5] = system: P. falciparum HB3 gametocytes; assay: alamarBlue gametocyte viability assay, strain HB3; type: cell-based, Plasmodium falciparum
[6] = system: P. falciparum asexual blood stage parasites; assay: asexual parasite SYBR green assay; type: cell-based, Plasmodium falciparum; details: for IC50: Plasmodium falciparum, SYBR green assay, read-out: IC50 against asexual parasites
[7] = system: early stages (I and II) of P. falciparum gametocytes; design: method as in PMID 6285190; details: cited from earlier work
[8] = design: method as in PMID 21322566; details: cited from earlier work
Plasmodium berghei ANKA = assay: mouse-mosquito transmission model, oocysts per mosquito midgut; type: in vivo, Plasmodium berghei in mice / Anopheles stephensi
[9] = system: P. falciparum asexual blood stage; design: method as in PMID 6285190; details: cited from earlier work
mTOR = system: mTOR; design: method as in PMID 21322566; details: cited from earlier work
[10] = system: P. falciparum liver stage; design: method as in PMID 6285190; details: read-out: IC50, P. falciparum development in the liver stage; cited from earlier work
Dd2 asexual parasites = system: Dd2 asexual parasites; design: method as in PMID 17116676; details: cited from earlier work
[11] = 11 concentrations, 1:3 dilution, Inactive = no significant activity at 46 µM
[12] = Plasmodium falciparum, 3D7, P. falciparum 3D7 gametocytes, mean of at least 3 independent experiments, read-out: Gametocyte IC50
[13] = Plasmodium falciparum, DD2, strain profiling, 11 concentrations, 1:3 dilution, three times, read-out: Dd2-gametocytes IC50
[14] = Plasmodium falciparum, HB3, strain profiling, 11 concentrations, 1:3 dilution, three times, read-out: HB3-gametocytes IC50
[15] = Plasmodium falciparum, DD2, read-out: Dd2-gametocytes IC50
[16] = Plasmodium falciparum, HB3, read-out: HB3-gametocytes IC50
[17] = strain profiling, 11 concentrations, 1:3 dilution, three times, read-out: Dd2-gametocytes IC50
[18] = strain profiling, 11 concentrations, 1:3 dilution, three times, read-out: HB3-gametocytes IC50
[19] = P. falciparum 3D7 gametocytes, mean of at least 3 independent experiments, read-out: Gametocyte IC50

Compound	Emax (HepG2 cells [1]) [%]	IC50 in HepG2 cells (HepG2 cells [2]; [11])	IC50 [3, 12] [nM]	IC50 [4, 13] [nM]	IC50 [5, 14] [nM]	also measured
CC(=O)Nc1cccc(-n2c(=O)n(C3CC3)c(=O)c3c(Nc4ccc(I)cc4F)n(C)c(=O)c(C)c32)c1 [Trametinib]	14	Inactive	935			
CO[C@H]1O[C@@H]2O[C@@]3(C)CC[C@H]4[C@H](C)CC[C@@H]([C@H]1C)[C@@]24OO3 [Artemether]	7	Inactive	73	53	47	IC50 ([3]; Plasmodium falciparum, 3D7, strain profiling, 11 concentrations, 1:3 dilution, three times, read-out: 3D7-gametocytes IC50): 74 nM
COc1cccc2c1C(=O)c1c(O)c3c(c(O)c1C2=O)C[C@@](O)(C(=O)CO)C[C@@H]3O[C@H]1C[C@H](N)[C@H](O)[C@H](C)O1 [Adriamycin]	-35	Inactive	526	1050	935	
Nc1ccc(-c2ccc3ncc4ccc(=O)n(-c5cccc(C(F)(F)F)c5)c4c3c2)cn1 [Torin 2, 9-(6-Amino-3-pyridinyl)-1-[3-(trifluoromethyl)phenyl]-benzo[h]-1,6-naphthyridin-2(1H)-one]	-46		8	12	15	IC50 (HepG2 cells [1]; HepG2, read-out: IC50 in HepG2 cells): 9350 nM; IC50 [6]: 2.75 nM; IC50 [7]: 6.6 nM; oral bioavailability [8]: 51%; exflagellation just prior to mosquito feed, drug- vs vehicle-treated mice (Plasmodium berghei ANKA; 1.5 hrs after drug treatment): no difference; also recorded: equivalent to that of the vehicle-treated controls; oocyst production in fed mosquitoes (Plasmodium berghei ANKA; single dose 2 mg/kg i.v.): significantly reduced; oocyst production in fed mosquitoes (Plasmodium berghei ANKA; single dose 4 mg/kg i.v., 4 mg/kg): almost completely eliminated; also recorded: nearly complete elimination; oocyst production in fed mosquitoes (Plasmodium berghei ANKA; two 4 mg/kg doses i.v. 3 hrs apart, feed 1.5 hrs after final treatment): completely block; also recorded: completely prevented; IC50 [9]: 1.4 nM; IC50 (mTOR): […]; IC50 [10]: 1.1 nM
CN(C)C(=S)SSC(=S)N(C)C [Thiram]	23	Inactive	83		148	IC50 [4, 15]: 148 nM
Cc1c2oc3c(C)ccc(C(=O)N[C@@H]4C(=O)N[C@H](C(C)C)C(=O)N5CCC[C@H]5C(=O)N(C)CC(=O)N(C)[C@@H](C(C)C)C(=O)O[C@@H]4C)c3nc-2c(C(=O)N[C@@H]2C(=O)N[C@H](C(C)C)C(=O)N3CCC[C@H]3C(=O)N(C)CC(=O)N(C)[C@@H](C(C)C)C(=O)O[C@@H]2C)c(N)c1=O [Dactinomycin] (I: T[dV]P[Sar][NMeV] / II: T[dV]P[Sar][NMeV]; ester I:1-I:C, II:1-II:C; linker I:N-II:N via Actinocin(9to1))	1	Inactive				IC50 [4, 15]: 33 nM; IC50 [5, 16]: 19 nM; IC50 ([3]; Plasmodium falciparum, 3D7, read-out: Gametocyte IC50): 15 nM
CCN(CCO)CCCOc1ccc2c(Nc3cc(CC(=O)Nc4cccc(F)c4)n[nH]3)ncnc2c1 [AZD-1152-HQPA]	11	Inactive	743	1480	1480	
C[C@H]1[C@@H](O)O[C@@H]2O[C@@]3(C)CC[C@H]4[C@H](C)CC[C@@H]1[C@@]24OO3 [Artenimol (DHA), Artenimol]	20	Inactive	77	53	59	
O=C1C(=O)c2ncccc2-c2cccnc21 [Phanquinone]	23	Inactive	109	53	37	
CC(=O)OC[C@H]1O[C@@H]([S-])[C@H](OC(C)=O)[C@@H](OC(C)=O)[C@@H]1OC(C)=O.CCP(CC)CC.[Au+] [Auranofin]						IC50 [4, 17]: 1180 nM; % Max response (HepG2 cells [2]): -98%; IC50 (HepG2 cells [2]; read-out: IC50 in HepG2 cells, 11 concentrations, 1:3 dilution, Inactive = no significant activity at 46 µM): 9350 nM; IC50 [5, 18]: 1050 nM; IC50 [3, 19]: 935 nM
C[C@H]1[C@H](OC(=O)CCC(=O)O)O[C@@H]2O[C@@]3(C)CC[C@H]4[C@H](C)CC[C@@H]1[C@@]24OO3 [Artesunate]	18	Inactive	59	30	47	
CCN(CC)CCCC(C)Nc1ccnc2cc(Cl)ccc12 (centres unmarked) [Chloroquine diphosphate]						reduction of potency against Dd2 gametocytes compared to 3D7 [4]: 3.7 fold; IC50 ([4]; Plasmodium falciparum, DD2, read-out: Dd2-gametocytes IC50, strain profiling, 11 concentrations, 1:3 dilution, three times): 935 nM; IC50 ([5]; Plasmodium falciparum, HB3, read-out: HB3-gametocytes IC50, strain profiling, 11 concentrations, 1:3 dilution, three times): 935 nM; fold less potent against Dd2 asexual parasites compared to 3D7 (Dd2 asexual parasites): 10 fold; IC50 ([3]; Plasmodium falciparum, 3D7, read-out: 3D7-gametocytes IC50): 253 nM
C=CC1CN2CCC1CC2C(O)c1ccnc2ccc(OC)cc12.C=CC1CN2CCC1CC2C(O)c1ccnc2ccc(OC)cc12.O=S(=O)(O)O (centres unmarked) [Quinine hemisulfate]		Inactive				IC50 [4, 17]: 83 nM; % Max response (HepG2 cells [2]): 2%; IC50 [5, 18]: 235 nM; IC50 [3, 19]: 345 nM
S=C(SSC(=S)N1CCCCC1)N1CCCCC1 [Dicyclopentamethylenethiuram disulfide]	0	Inactive				IC50 [4, 15]: 743 nM; IC50 [5, 16]: 743 nM; IC50 ([3]; Plasmodium falciparum, P. falciparum 3D7 gametocytes, mean of at least 3 independent experiments, read-out: Gametocyte IC50): 274 nM
CN(C)c1ccc2nc3ccc(=[N+](C)C)cc-3sc2c1 [Methylene blue]	-20	Inactive	307	526	935	
CCC(=O)N1CCN(c2ccc(-n3c(=O)ccc4cnc5ccc(-c6cnc7ccccc7c6)cc5c43)cc2C(F)(F)F)CC1 [Torin 1, 1-[4-[4-(1-Oxopropyl)-1-piperazinyl]-3-(trifluoromethyl)phenyl]-9-(3-quinolinyl)-benzo[h]-1,6-naphthyridin-2(1H)-one]				5260	3720	times less potent than Torin 2 against asexual parasites [6]: […]; IC50 [6]: 215 nM; fold less potent than Torin 2 against gametocytes [3]: […]; IC50 ([3]; Plasmodium falciparum, 3D7, read-out: 3D7-gametocytes IC50, strain profiling, 11 concentrations, 1:3 dilution, three times): 6620 nM; IC50 ([3]; Plasmodium falciparum, 3D7, read-out: Gametocyte IC50, P. falciparum 3D7 gametocytes, mean of at least 3 independent experiments): 1600 nM; IC50 (mTOR): […]
Monensin sodium		Inactive				IC50 ([4]; read-out: Dd2-gametocytes IC50, strain profiling, 11 concentrations, 1:3 dilution, three times): 372 nM; % Max response (HepG2 cells [2]): 40%; IC50 ([5]; read-out: HB3-gametocytes IC50, strain profiling, 11 concentrations, 1:3 dilution, three times): 264 nM; IC50 ([3]; read-out: Gametocyte IC50, P. falciparum 3D7 gametocytes, mean of at least 3 independent experiments): 254 nM
C[C@@H]1CC[C@H]2[C@@H](C)C(=O)O[C@@H]3O[C@@]4(C)CC[C@@H]1[C@]32OO4 [Artemisinin]	18	Inactive	148	61	74	
COc1ncc(-c2ccc3nccc(-c4ccnnc4)c3c2)cc1NS(=O)(=O)c1ccc(F)cc1F [GSK-458]		Inactive				IC50 [4, 17]: 1480 nM; % Max response (HepG2 cells [2]): 33%; IC50 [5, 18]: 332 nM; IC50 [3, 19]: 935 nM
